Test results from patent publication US10647710B2, “Thiazole derivative and applications thereof” (Medshine Discovery Inc., priority 2017, dated 2020).

Tested on: herpes simplex virus type 1 (HSV-1) GHSV-UL46 strain
Assay: HSV-1 cytopathic effect (CPE) assay
Assay type: cell-based
Details: Human alphaherpesvirus 1, Vero C1008, in Chlorocebus sabaeus, 120 h, read-out: HSV-1 cytopathic effect EC50, HSV-1 GHSV-UL46 in Vero E6 cells, 5 days culture, CCK8 readout
Description: To evaluate the antiviral activity of compounds against the herpes simplex virus type 1 (HSV-1) GHSV-UL46 strain in the cytopathic effect (CPE) assay.
Virus: HSV-1 GHSV-UL46, ATCC # VR-1544
Cells: African green monkey kidney cell Vero E6, obtained from Wuhan Institute of Virology, Chinese Academy of Sciences.
1.4. The cells were diluted to 1.33×10^5 cells/ml using cytopathic assay medium. The diluted cell suspension was added to a 384-well plate (Corning #3701) by using Multidrop, and 30 μl of the diluted cell suspension (4000 cells) per well were added.
2.2. Compounds were added to cell-inoculated 384-well plates using an ECHO 555 liquid workstation. Eight concentrations were tested in duplicate for each assay compound. For the cell control wells, neither compound nor virus was added. For the virus control wells, no compound was added. The final concentration of DMSO in all the wells was 0.5%.
2.3. The virus was diluted with the assay medium at an inoculation amount of 1.5 TCID90/well, 30 μl. The assay medium was added to the cell control wells with Multidrop, 30 μl per well. Then the diluted virus was added to the compound test wells and the virus control wells with Multidrop, 30 μl per well.
2.4. The cell plates were placed and cultured in a 37° C., CO2 cell incubator for 5 days.
3.2. CCK8 was added to the cell plate with Multidrop, 6 μl per well.
3.4. The absorbance of each well of the cell plate was read with a microplate reader at a wavelength of 450 nm, and 630 nm was used as the reference wavelength. The raw data were obtained by substrating the absorbance at 630 nm from the absorbance at 450 nm (Raw data=OD450-OD630).
4.1. The antiviral activity (% Inhibition) of the assay compound was calculated using the following equation: […]
wherein, Sample is the absorbance of the compound test well; cell control is the average of the absorbances of the cell control wells; and virus control is the average of the absorbances of the virus control wells.
4.2. Dose-response curves were plotted using GraphPad Prism software and the half maximal effective concentration (EC50) of the assay compounds was determined.

Row | SMILES | EC50 [nM]
1 | Cc1nc(N(C)C(=O)C2Cc3ccc(-c4ccccn4)cc3C2)sc1S(N)(=O)=O (single isomer, unassigned) [WX037] | 7
2 | Cc1nc(N(C)C(=O)[C@@H]2CCc3cc(-c4ccccn4)ccc32)sc1S(N)(=O)=O [WX017] | 46
3 | Cc1nc(N(C)C(=O)[C@H]2CCc3cc(-c4ccccn4)ccc32)sc1S(N)(=O)=O [WX018] | 250
4 | Cc1nc(N(C)C(=O)[C@@H]2CCCc3cc(-c4ccccn4)ccc32)sc1S(N)(=O)=O [WX030] | 950
5 | Cc1nc(N(C)C(=O)[C@H]2CCCc3cc(-c4ccccn4)ccc32)sc1S(N)(=O)=O [WX031] | 770
6 | Cc1nc(N(C)C(=O)C2Cc3ccc(-c4ccccn4)cc3C2)sc1S(N)(=O)=O (centres unmarked) [WX036] | > 1000
7 | Cc1nc(N(C)C(=O)N2Cc3ccc(-c4ccccn4)cc3C2)sc1S(N)(=O)=O [WX042] | 42
8 | Cc1nc(N(C)C(=O)C2Cc3ccc(-c4ccccn4)cc3C2)sc1S(=O)(=O)NC1CC1 (centres unmarked) [WX043] | 9
9 | CC(=O)OCC1(C(=O)N(C)c2nc(C)c(S(N)(=O)=O)s2)Cc2ccc(-c3ccccn3)cc2C1 (centres unmarked) [WX072] | 360
10 | Cc1nc(N(C)C(=O)C2(CO)Cc3ccc(-c4ccccn4)cc3C2)sc1S(N)(=O)=O (centres unmarked) [WX073] | 120
11 | Cc1nc(N(C)C(=O)C2(C)Cc3ccc(-c4ccccn4)cc3C2)sc1S(N)(=O)=O (centres unmarked) [WX074] | 43
12 | Cc1nc(N(C)C(=O)N2CCc3ccc(-c4ccccn4)cc3C2)sc1S(N)(=O)=O [WX128] | 140
13 | COc1cccc(-c2ccc3c(c2)CC(C(=O)N(C)c2nc(C)c(S(N)(=O)=O)s2)C3)n1 (centres unmarked) [WX129] | 46
14 | Cc1nc(N(C)C(=O)C2Cc3ccc(-c4nccs4)cc3C2)sc1S(N)(=O)=O (centres unmarked) [WX130] | 17
15 | Cc1nc(N(C)C(=O)C2COc3ccc(-c4ccccn4)cc3C2)sc1S(N)(=O)=O (centres unmarked) [WX131] | 130
16 | Cc1nc(N(C)C(=O)C2CCc3ccc(-c4ccccn4)cc3C2)sc1S(N)(=O)=O (centres unmarked) [WX133] | 140
17 | Cc1nc(N(C)C(=O)C2Cc3ccc(-c4cccc(N(C)C)n4)cc3C2)sc1S(=O)(=O)NC1CC1 (centres unmarked) [WX142] | 150
18 | Cc1nc(N(C)C(=O)C2Cc3ccc(Oc4ccccn4)cc3C2)sc1S(N)(=O)=O (centres unmarked) [WX144] | 410
19 | Cc1cccc(-c2ccc3c(c2)C[C@@H](C(=O)N(C)c2nc(C)c(S(N)(=O)=O)s2)C3)n1 [WX146] | 12
20 | Cc1cccc(-c2ccc3c(c2)C[C@H](C(=O)N(C)c2nc(C)c(S(N)(=O)=O)s2)C3)n1 [WX147] | 780
21 | Cc1nc(N(C)C(=O)[C@H]2Cc3ccc(-c4cccc(N(C)C)n4)cc3C2)sc1S(N)(=O)=O [WX148] | 44
22 | Cc1nc(N(C)C(=O)[C@@H]2Cc3ccc(-c4cccc(N(C)C)n4)cc3C2)sc1S(N)(=O)=O [WX149] | 550
23 | Cc1nc(N(C)C(=O)[C@H]2Cc3ccc(-c4cccc(N)n4)cc3C2)sc1S(N)(=O)=O [WX150] | 12
24 | Cc1nc(N(C)C(=O)[C@@H]2Cc3ccc(-c4cccc(N)n4)cc3C2)sc1S(N)(=O)=O [WX151] | 230
25 | Cc1nc(N(C)C(=O)[C@H]2Cc3ccc(-c4cccc(N)n4)cc3C2)sc1S(=O)(=O)NC1CC1 [WX152] | 7
26 | Cc1nc(N(C)C(=O)[C@@H]2Cc3ccc(-c4cccc(N)n4)cc3C2)sc1S(=O)(=O)NC1CC1 [WX153] | 810
27 | Cc1nc(N(C)C(=O)[C@H]2Cc3ccc(-c4ncccc4F)cc3C2)sc1S(N)(=O)=O [WX154] | 310
28 | Cc1nc(N(C)C(=O)[C@@H]2Cc3ccc(-c4ncccc4F)cc3C2)sc1S(N)(=O)=O [WX155] | 24
29 | Cc1nc(N(C)C(=O)C2Cc3cc(Cl)c(-c4ccccn4)cc3C2)sc1S(N)(=O)=O (centres unmarked) [WX156] | 650

Same assay, conditions: read-out: HSV-1 cytopathic effect EC50; HSV-1 GHSV-UL46 in Vero E6 cells, 5 days culture, CCK8 readout

Row | SMILES | EC50 [nM]
30 | Cc1nc(N(C)C(=O)C2Cc3cc(F)c(-c4ccccn4)cc3C2)sc1S(N)(=O)=O (centres unmarked) [WX158] | > 1000
31 | Cc1nc(N(C)C(=O)C2Cc3cc(F)c(-c4ccccn4)cc3C2)sc1S(N)(=O)=O (centres unmarked) [WX159] | 17

Tested on: not listed separately
Assay: Pharmacokinetics of compounds in mice in vivo
Details: male, mouse, in vivo; Balb/c mice, oral administration (gavage) 1.0 mg/kg; read-out: Bioavailability F
Description: Objective: To test the pharmacokinetics of compounds in mice in vivo.
Balb/c mice (male, 18-22 g, 6-8 weeks old, Shanghai Slack)
The pharmacokinetics profile of the compound in rodent was tested using a standard protocol after intravenous and oral administrations. The candidate compound was prepared as a corresponding solution, which was administered as a single intravenous injection (1.0 mg/kg, 5% DMSO/95% 20% hydroxypropyl-β-cyclodextrin) or gavage (1.0 mg/kg, 0.5% methyl Cellulose MC4000). The whole blood samples were collected within 24 hours, centrifuged at 3000 g for 15 minutes, and plasma samples were obtained by separating the supernatant. 4 times volume of acetonitrile solution containing an internal standard was added to precipitate proteins. After centrifugation, the supernatant was collected, to which an equal volume of water was added, and further centrifuged to collect the supernatant. The LC-MS/MS analysis method was used to quantitatively analyze the plasma concentration, and the pharmacokinetics parameters, such as peak concentration, peak time, clearance rate, half-life, area under the curve, and bioavailability were calculated.

Row | SMILES | bioavailability [%]
32 | Cc1nc(N(C)C(=O)Cc2ccc(-c3ccccn3)cc2)sc1S(N)(=O)=O [Pritelivir, reference compound] | 100

Same assay, conditions: male, mouse, in vivo; Balb/c mice, oral administration (gavage) 1.0 mg/kg; read-out: Concentration Integral AUC

Row | SMILES | AUC [µM·h]
33 | Cc1nc(N(C)C(=O)Cc2ccc(-c3ccccn3)cc2)sc1S(N)(=O)=O [Pritelivir, reference compound] | 129

Same assay, conditions: male, mouse, in vivo; Balb/c mice, single intravenous injection 1.0 mg/kg

Row | SMILES | clearance [mL/min/kg]
34 | Cc1nc(N(C)C(=O)Cc2ccc(-c3ccccn3)cc2)sc1S(N)(=O)=O [Pritelivir, reference compound] | 0.4

Same assay, conditions: male, mouse, plasma; Balb/c mice, oral administration (gavage) 1.0 mg/kg; read-out: Bioavailability F

Row | SMILES | bioavailability [%]
35 | Cc1nc(N(C)C(=O)C2Cc3ccc(-c4ccccn4)cc3C2)sc1S(N)(=O)=O (single isomer, unassigned) [WX037] | 75

Same assay, conditions: male, mouse, plasma; Balb/c mice, oral administration (gavage) 1.0 mg/kg; read-out: Concentration Integral AUC

Row | SMILES | AUC [µM·h]
36 | Cc1nc(N(C)C(=O)C2Cc3ccc(-c4ccccn4)cc3C2)sc1S(N)(=O)=O (single isomer, unassigned) [WX037] | 24.4

Same assay, conditions: male, mouse, plasma; Balb/c mice, single intravenous injection 1.0 mg/kg

Row | SMILES | clearance [mL/min/kg]
37 | Cc1nc(N(C)C(=O)C2Cc3ccc(-c4ccccn4)cc3C2)sc1S(N)(=O)=O (single isomer, unassigned) [WX037] | 1.2

Same assay, conditions: male, mouse, plasma; Balb/c mice, single intravenous injection 1.0 mg/kg; read-out: Half life T1/2 (converted)

Row | SMILES | half-life [h]
38 | Cc1nc(N(C)C(=O)C2Cc3ccc(-c4ccccn4)cc3C2)sc1S(N)(=O)=O (single isomer, unassigned) [WX037] | 6
